System: primary human mesenchymal stem cells (hMSCs)
Experiment: Induction of chondrogenesis in primary human mesenchymal stem cells (hMSCs), nodule imaging with Rhodamine B / Nile Red
Assay type: cell-based
Details: for Emax: hMSCs chondrogenesis, TGF-β3 (10 ng/mL) as positive control, read-out: Max. Activity as % TGF-β3 activity; for EC50: hMSCs, concentration required to induce 50% levels of chondrogenesis vs TGF-β3 positive control, read-out: Conc (nM) of 50% TGF-β3 activity
Protocol: Representative compounds were screened using primary human mesenchymal stem cells (hMSCs) to determine their ability to induce chondrogenesis (process by which cartilage is developed).
Human Mesenchymal Stem Cell Culture: Primary human mesenchymal stem cells (hMSCs) were purchased from Lonza (Walkersville, Md.) and expanded in Mesenchymal Stem Cell Growth Media (Lonza). Cells between passage 3 and 6 were used for the experiments.
Compound Screening: Each compound was dissolved in DMSO as a 10 mM stock and used to prepare compound source plates. For the 96 well assay, serial dilution (1:3, 6-point dose-response curves from 2700 nM to 10 nM) and compound transfer was performed using the ECHO 550 (Labcyte, Sunnyvale, Calif.) into 96-well clear bottom assay plates (Greiner Bio-One) with appropriate DMSO backfill for a final DMSO concentration of 0.03%. hMSCs were plated at 20,000 cells/well in 250 μL/well Incomplete Chondrogenic Induction Medium (Lonza; DMEM, dexamethasone, ascorbate, insulin-transferrin-selenium [ITS supplement], gentamycin-amphotericin [GA-1000], sodium pyruvate, proline and L-glutamine). TGF-β3 (10 ng/mL) was used as a positive control for differentiation while negative control wells were treated with 75 nL DMSO for normalization and calculating EC50 values. For the 384 well assay, serial dilution (1:3, 8-point dose-response curves from 5000 nM to 2.2 nM) and compound transfer was performed using the ECHO 550 (Labcyte, Sunnyvale, Calif.) into 384-well clear bottom assay plates (Greiner Bio-One) with appropriate DMSO backfill for a final DMSO concentration of 0.03%. hMSCs were plated at 8,000 cells/well in 80 μL/well Incomplete Chondrogenic Induction Medium (Lonza; DMEM, dexamethasone, ascorbate, insulin-transferrin-selenium [ITS supplement], gentamycin-amphotericin [GA-1000], sodium pyruvate, proline and L-glutamine). TGF-β3 (10 ng/mL) was used as a positive control for differentiation while negative control wells were treated with 25 nL DMSO for normalization and calculating EC50 values. Cells were incubated at 37° C. and 5% CO2 for 6 days. To image chondrogenic nodules, the cells were fixed using 4% formaldehyde (Electron Microscopy Sciences), and stained with 2 μg/mL Rhodamine B (Sigma-Aldrich) and 20 μM Nile Red (Sigma-Aldrich) [Johnson K., et.al, A Stem Cell-Based Approach to Cartilage Repair, Science, (2012), 336(6082). 717-721]. The nodules imaged (25 images per well for 96 well plates and 9 images per well for 384 well plates at 10× magnification) by excitation at 531 nm and emission at 625 nm and quantified using the CellInsight CX5 (Thermo Scientific). Area of nodules in each well was normalized to the average of 3 DMSO treated wells on the same plate using Excel (Microsoft Inc.). The normalized averages (fold change over DMSO) of 2 or 3 replicate wells for each compound concentration were calculated. Due to solubility limitations of some of the compounds, curve fitting was incomplete leading to inaccurate EC50 determinations.
Using TGF-β3 as a positive control, the concentration of representative compounds required to induce 50% levels of chondrogenesis is reported. In addition, the maximum activity of each compound and the respective dose that each compound reached maximum chondrogenesis activity is reported.

Row | Compound | Emax [%] | EC50 [nM]
1 | CCC(=O)Nc1cncc(-c2ccc3[nH]nc(-c4nc5c(-c6cccs6)cncc5[nH]4)c3n2)c1 [Compound 309, N-(5-(3-(7-(Thiophen-2-yl)-3H-imidazo[4,5-c]pyridin-2-yl)-1H-pyrazolo[4,3-b]pyridin-5-yl)pyridin-3-yl)propionamide] | 80 | 30
2 | CN(C)Cc1cncc(-c2ccc3[nH]nc(-c4nc5c(-c6cccs6)cncc5[nH]4)c3n2)c1 [Compound 321, N,N-dimethyl-1-(5-(3-(7-(thiophen-2-yl)-3H-imidazo[4,5-c]pyridin-2-yl)-1H-pyrazolo[4,3-b]pyridin-5-yl)pyridin-3-yl)methanamine] | 79 | 10
3 | Cc1ccc(-c2cncc3[nH]c(-c4n[nH]c5ccc(-c6cncc(NC(=O)C(C)C)c6)nc45)nc23)s1 [Compound 373, N-(5-(3-(7-(5-Methylthiophen-2-yl)-3H-imidazo[4,5-c]pyridin-2-yl)-1H-pyrazolo[4,3-b]pyridin-5-yl)pyridin-3-yl)isobutyramide] | 42 | 
4 | CCNCc1cncc(-c2ccc3[nH]nc(-c4nc5c(-c6cc(F)cc(NCCN(C)C)c6)cncc5[nH]4)c3n2)c1 [Compound 426, N^1-(3-(2-(5-(5-((Ethylamino)methyl)pyridin-3-yl)-1H-pyrazolo[4,3-b]pyridin-3-yl)-3H-imidazo[4,5-c]pyridin-7-yl)-5-fluorophenyl)-N^2,N^2-dimethylethane-1,2-diamine] | 66 | 1670
5 | CCCCC(=O)Nc1cncc(-c2ccc3[nH]nc(-c4nc5c(-c6cc(F)cc(NCCN(C)C)c6)cncc5[nH]4)c3n2)c1 [Compound 439, N-(5-(3-(7-(3-((2-(Dimethylamino)ethyl)amino)-5-fluorophenyl)-3H-imidazo[4,5-c]pyridin-2-yl)-1H-pyrazolo[4,3-b]pyridin-5-yl)pyridin-3-yl)pentanamide] | 65 | 10
6 | CCCC(=O)Nc1cncc(-c2ccc3[nH]nc(-c4nc5c(-c6cc(F)cc(CNS(C)(=O)=O)c6)cncc5[nH]4)c3n2)c1 [Compound 465, N-(5-(3-(7-(3-Fluoro-5-(methylsulfonamidomethyl)phenyl)-3H-imidazo[4,5-c]pyridin-2-yl)-1H-pyrazolo[4,3-b]pyridin-5-yl)pyridin-3-yl)butyramide] | 39 | 
7 | Fc1cccc(-c2cncc3[nH]c(-c4n[nH]c5ccc(C6CCNCC6)nc45)nc23)c1 [Compound 477, 3-(7-(3-Fluorophenyl)-3H-imidazo[4,5-c]pyridin-2-yl)-5-(piperidin-4-yl)-1H-pyrazolo[4,3-b]pyridine] | 43 | 
8 | Fc1cccc(-c2cncc3[nH]c(-c4n[nH]c5ccc(C6=CCNCC6)nc45)nc23)c1 [Compound 478, 3-(7-(3-Fluorophenyl)-3H-imidazo[4,5-c]pyridin-2-yl)-5-(1,2,3,6-tetrahydropyridin-4-yl)-1H-pyrazolo[4,3-b]pyridine] | 53 | 7
9 | Fc1cccc(-c2cncc3[nH]c(-c4n[nH]c5ccc(-c6cn[nH]c6)nc45)nc23)c1 [Compound 479, 3-(7-(3-Fluorophenyl)-3H-imidazo[4,5-c]pyridin-2-yl)-5-(1H-pyrazol-4-yl)-1H-pyrazolo[4,3-b]pyridine] | 52 | 21
10 | Cn1cc(-c2ccc3[nH]nc(-c4nc5c(-c6cccc(F)c6)cncc5[nH]4)c3n2)cn1 [Compound 480, 3-(7-(3-Fluorophenyl)-3H-imidazo[4,5-c]pyridin-2-yl)-5-(1-methyl-1H-pyrazol-4-yl)-1H-pyrazolo[4,3-b]pyridine] | 49 | 
11 | Cc1ncc(-c2ccc3[nH]nc(-c4nc5c(-c6cccc(F)c6)cncc5[nH]4)c3n2)n1C [Compound 481, 5-(1,2-Dimethyl-1H-imidazol-5-yl)-3-(7-(3-fluorophenyl)-3H-imidazo[4,5-c]pyridin-2-yl)-1H-pyrazolo[4,3-b]pyridine] | 132 | 30
12 | NC1CN(c2cncc(-c3ccc4[nH]nc(-c5nc6c(-c7cccc(F)c7)cncc6[nH]5)c4n3)n2)C1 [Compound 482, 1-(6-(3-(7-(3-Fluorophenyl)-3H-imidazo[4,5-c]pyridin-2-yl)-1H-pyrazolo[4,3-b]pyridin-5-yl)pyrazin-2-yl)azetidin-3-amine] | 56 | 7
13 | Fc1cccc(-c2cncc3[nH]c(-c4n[nH]c5ccc(-c6cncc(OC7CCNCC7)c6)nc45)nc23)c1 [Compound 484, 3-(7-(3-Fluorophenyl)-3H-imidazo[4,5-c]pyridin-2-yl)-5-(5-(piperidin-4-yloxy)pyridin-3-yl)-1H-pyrazolo[4,3-b]pyridine] | 82 | 7
14 | Oc1cncc(-c2ccc3[nH]nc(-c4nc5c(-c6cccc(F)c6)cncc5[nH]4)c3n2)c1 [Compound 489, 5-(3-(7-(3-Fluorophenyl)-3H-imidazo[4,5-c]pyridin-2-yl)-1H-pyrazolo[4,3-b]pyridin-5-yl)pyridin-3-ol] | 54 | 21
15 | Fc1cccc(-c2cncc3[nH]c(-c4n[nH]c5ccc(-c6cnccn6)nc45)nc23)c1 [Compound 492, 3-(7-(3-Fluorophenyl)-3H-imidazo[4,5-c]pyridin-2-yl)-5-(pyrazin-2-yl)-1H-pyrazolo[4,3-b]pyridine] | 67 | 2
16 | CN(C)CC(=O)Nc1cncc(-c2ccc3[nH]nc(-c4nc5c(-c6cccc(F)c6)cncc5[nH]4)c3n2)c1 [Compound 925, 2-(Dimethylamino)-N-(5-(3-(7-(3-fluorophenyl)-3H-imidazo[4,5-c]pyridin-2-yl)-1H-pyrazolo[4,3-b]pyridin-5-yl)pyridin-3-yl)acetamide] | 52 | 21
17 | COc1cccc(-c2cncc3[nH]c(-c4n[nH]c5ccc(-c6cccnc6)nc45)nc23)c1 [Compound 949, 3-(7-(3-Methoxylphenyl)-3H-imidazo[4,5-c]pyridin-2-yl)-5-(pyridin-3-yl)-1H-pyrazolo[4,3-b]pyridine] | 59 | 30
18 | COc1cccc(-c2cncc3[nH]c(-c4n[nH]c5ccc(-c6cncc(NC(=O)C7CCCCC7)c6)nc45)nc23)c1 [Compound 967, N-(5-(3-(7-(3-Methoxylphenyl)-3H-imidazo[4,5-c]pyridin-2-yl)-1H-pyrazolo[4,3-b]pyridin-5-yl)pyridin-3-yl)cyclohexanecarboxamide] | 80 | 10
19 | Cc1ncc(-c2ccc3[nH]nc(-c4nc5c(-c6cccc(F)c6)cncc5[nH]4)c3n2)s1 [Compound 1081, 5-(3-(7-(3-Fluorophenyl)-3H-imidazo[4,5-c]pyridin-2-yl)-1H-pyrazolo[4,3-b]pyridin-5-yl)-2-methylthiazole] | 81 | 7
20 | Cc1cnc(-c2ccc3[nH]nc(-c4nc5c(-c6cccc(F)c6)cncc5[nH]4)c3n2)s1 [Compound 1082, 2-(3-(7-(3-Fluorophenyl)-3H-imidazo[4,5-c]pyridin-2-yl)-1H-pyrazolo[4,3-b]pyridin-5-yl)-5-methylthiazole] | 45 | 

Source: patent publication US10188634B2, “3-(3H-imidazo[4,5-C]pyridin-2-yl)-1 H-pyrazolo[4,3-B]pyridines and therapeutic uses thereof” (Samumed, LLC, priority 2015, dated 2019)
